According to patent US8722681B2, “N-sulfonyl thiazolylpiperazine derivatives and related N-sulfonyl heterocyclic derivatives for the treatment of neuro degenerative diseases” (NV reMYND, priority 2007, dated 2014):
pEC50: −log10 of the molar value.

Tested on: M17-SYNwt cells
Assay: α-synuclein cytotoxicity assay (LDH leakage from paraquat-treated M17-SYNwt cells)
Type: cell-based, human
Conditions: for pEC50: Homo sapiens, M17-SYNwt cells, paraquat 32 mM, 40 hours, LDH activity; for % I (percentage inhibition) / % inh. (percentage inhibition): inhibition of synuclein toxicity at most effective concentration relative to untreated paraquat cells
Excerpt: An α-synuclein expression plasmid was constructed by sub-cloning the NcoI/XhoI fragment from 212T-SYN(WT) (Griffioen et al., Biochem Biophys Acta (2006) 1762(3):312-318) containing the cDNA of human wild type α-synuclein correspondingly into a standard mammalian expression vector pcDNA3.1 resulting in plasmid pcDNA3.1-SYNwt. Plasmid pcDNA3.1 and pcDNA3.1-SYNwt were transfected to human neuroblastoma cells (ATCC No. CRL-2267) and independent clonal lines with the plasmids stably integrated into the genome were selected. […] Over-expression of α-synuclein in M17-SYNwt cell lines was confirmed by Western analysis.
Due to the high levels of α-synuclein M17-SYNwt cells are exquisitely sensitivity to paraquat, a well-known risk factor of synuclein-dependent neuronal degeneration. In degenerated or dead cells lactate dehydrogenase (LDH) is leaked out of the cells into the extracellular environment due to a loss of plasma-membrane integrity. This principle was used to determine cytotoxicity by quantifying the level of leaked LDH into the growth medium.
The detailed method for determining α-synuclein cytotoxicity was as follows: From appropriate precultures of M17 and M17-SYN cells were seeded at 50000 cells/cm^2 in Optimem Reduced Serum without phenol red (InVitrogen, Cat. 31985-047) supplemented with 5% fetal calf serum, 1 mM sodium pyruvate, 1×non-essential amino acids, 500 μg/ml G418 0.5×antibiotic/antimycotic. After 3 hours of incubation at 37° C./5% CO2 paraquat was added to the cells (final concentration of 32 mM), together with the test compound and the cells were further incubated for 40 hours. Subsequently, LDH activity was determined using Promega Cytotox 96 Non-Radioactive cytotoxicity assay, (Cat. G1780) according the supplier's instructions.
This α-synuclein expressing neuroblastoma cells made it possible to assess the ability of novel compounds to counteract α-synuclein cytotoxicity. […] Since this method monitors leaked LDH from degenerated or dead cells only non-toxic compounds will be identified as active inhibitors of α-synuclein-mediated cytotoxicity. Lack of toxicity is an important characteristic for compounds to be used as a medicament to patients in need. A compound was considered to be active in this test when it inhibits α-synuclein cytotoxicity by more than 25% relative to untreated M17-SYNwt cells at a concentration of 20 μg/mL or lower. In the experiments, the control group consisted of M17-SYNwt cells treated with DMSO, the untreated paraquat group consisted of M17-SYNwt cells treated with paraquat and DMSO, and the treated paraquat group consisted of M17-SYNwt cells treated with paraquat and the test compound dissolved in DMSO.
Percent inhibition was calculated as the synuclein toxicity inhibition by the compound in treated paraquat cells, relative to the synuclein cytotoxicity in untreated paraquat cells.
The compounds from table 1 were screened for activity using the α-synuclein cytotoxicity assay as described above. Dose responses were carried out on all compounds found to be active (10 point curves in duplicate).

| SMILES | pEC50 (Table 1) | % I (percentage inhibition) (Table 1) | pEC50 (Table 2) | % inh. (percentage inhibition) (Table 2) |
| --- | --- | --- | --- | --- |
| COc1ccc(S(=O)(=O)N2CCN(c3nc(-c4ccc(F)cc4)cs3)CC2)cc1 [Compound 1, 1-[4-(4-fluorophenyl)-1,3-thiazol-2-yl]-4-[(4-methoxyphenyl)-sulfonyl]-piperazine] | 7.62 | 100% | – | – |
| Cc1ccc(S(=O)(=O)N2CCN(c3nc(-c4ccc(F)cc4)cs3)CC2)cc1 [Compound 2] | 6.80 | 70% | – | – |
| CCCc1sc(N2CCN(S(=O)(=O)c3ccc(C)cc3)CC2)nc1-c1ccccc1 [Compound 4] | 6.69 | 61% | – | – |
| COc1cccc(-c2csc(N3CCN(S(=O)(=O)c4ccc(F)cc4)CC3)n2)c1 [Compound 5] | 6.67 | 90% | – | – |
| O=S(=O)(c1ccc(Cl)cc1)N1CCN(c2nc(-c3ccc(F)cc3)cs2)CC1 [Compound 6] | 6.52 | 88% | – | – |
| O=S(=O)(c1ccc(Br)cc1)N1CCN(c2nc(-c3ccc(F)cc3)cs2)CC1 [Compound 7] | 6.49 | 94% | – | – |
| O=S(=O)(C1CCCCC1Br)N1CCN(c2nc(-c3ccc(F)cc3)cs2)CC1 (stereo not shown) [Compound 8] | 6.25 | 88% | – | – |
| O=S(=O)(c1ccc(F)cc1)N1CCN(c2nc(-c3ccc(F)cc3)cs2)CC1 [Compound 9] | 6.08 | 81% | – | – |
| COc1ccc(S(=O)(=O)N2CCN(c3nc(Cc4cccs4)cs3)CC2)cc1 [Compound 10, 1-(4-methoxyphenylsulfonyl)-4-(4-(thiophen-2-ylmethyl)thiazol-2-yl)piperazine] | – | – | 7.92 | 93% |
| COc1ccc(S(=O)(=O)N2CCN(c3nc(Cc4cccc(C#N)c4)cs3)CC2)cc1 [Compound 12, 3-((2-(4-(4-methoxyphenylsulfonyl)piperazin-1-yl)thiazol-4-yl)methyl)benzonitrile] | – | – | 8.49 | 66% |
| COc1ccc(S(=O)(=O)N2CCN(c3nc(Cc4cccc(F)c4)cs3)CC2)cc1 [Compound 13, 1-(4-(3-fluorobenzyl)thiazol-2-yl)-4-(4-methoxyphenylsulfonyl)piperazine] | – | – | 7.94 | 92% |
| COc1ccc(Cc2csc(N3CCN(S(=O)(=O)c4ccc(OC)cc4)CC3)n2)cc1 [Compound 14, 1-(4-(4-methoxybenzyl)thiazol-2-yl)-4-(4-methoxyphenylsulfonyl)piperazine] | – | – | 7.33 | 90% |
| COc1ccc(S(=O)(=O)N2CCN(c3nc(Cc4ccccc4OC)cs3)CC2)cc1 [Compound 15, 1-(4-(2-methoxybenzyl)thiazol-2-yl)-4-(4-methoxyphenylsulfonyl)piperazine] | – | – | 7.77 | 71% |
| COc1cccc(Cc2csc(N3CCN(S(=O)(=O)c4ccccc4OC)CC3)n2)c1 [Compound 16, 1-(4-(3-methoxybenzyl)thiazol-2-yl)-4-(2-methoxyphenylsulfonyl)piperazine] | – | – | 5.44 | 76% |
| COc1cccc(Cc2csc(N3CCN(S(=O)(=O)c4cccc(OC)c4)CC3)n2)c1 [Compound 17, 1-(4-(3-methoxybenzyl)thiazol-2-yl)-4-(3-methoxyphenylsulfonyl)piperazine] | – | – | 5.36 | 130% |
| COc1ccc(S(=O)(=O)N2CCN(c3nc(Cc4ccc5c(c4)OCO5)cs3)CC2)cc1 [Compound 18, 1-(4-(benzo[d][1,3]dioxol-5-ylmethyl)thiazol-2-yl)-4-(4-methoxyphenylsulfonyl)piperazine] | – | – | 7.64 | 19% |
| COc1cccc(Cc2csc(N3CCN(S(=O)(=O)c4ccc5c(c4)OCO5)CC3)n2)c1 [Compound 19, 1-(4-(3-methoxybenzyl)thiazol-2-yl)-4-(benzo[d][1,3]dioxol-5-ylsulfonyl)piperazine] | – | – | 6.60 | 84% |
| COc1cccc(Cc2csc(N3CCN(S(=O)(=O)c4cccnc4)CC3)n2)c1 [Compound 20, 1-(4-(3-methoxybenzyl)thiazol-2-yl)-4-(pyridin-3-ylsulfonyl)piperazine] | – | – | 5.76 | 76% |
| COc1cccc(Cc2csc(N3CCN(S(=O)(=O)c4ccccn4)CC3)n2)c1 [Compound 21, 1-(4-(3-methoxybenzyl)thiazol-2-yl)-4-(pyridin-2-ylsulfonyl)piperazine] | – | – | 5.61 | 116% |
| COc1cccc(Cc2csc(N3CCN(S(=O)(=O)c4ccsc4)CC3)n2)c1 [Compound 22, 1-(4-(3-methoxybenzyl)thiazol-2-yl)-4-(thiophen-3-ylsulfonyl)piperazine] | – | – | 6.00 | 89% |
| COc1cccc(Cc2csc(N3CCN(S(=O)(=O)c4c(C)n[nH]c4C)CC3)n2)c1 [Compound 23, 1-(4-(3-methoxybenzyl)thiazol-2-yl)-4-(3,5-dimethyl-1H-pyrazol-4-ylsulfonyl)piperazine] | – | – | 5.89 | 95% |
| COc1cccc(Cc2csc(N3CCN(S(=O)(=O)c4cccc5c4ccn5C)CC3)n2)c1 [Compound 24, 4-(4-(4-(3-methoxybenzyl)thiazol-2-yl)piperazin-1-ylsulfonyl)-1-methyl-1H-indole] | – | – | 5.93 | 82% |
| COc1cccc(Cc2csc(N3CCN(S(=O)(=O)c4cn(C)cn4)CC3)n2)c1 [Compound 26, 1-(4-(3-methoxybenzyl)thiazol-2-yl)-4-(1-methyl-1H-imidazol-4-ylsulfonyl)piperazine] | – | – | 6.06 | 87% |
| COc1cccc(Cc2csc(N3CCN(S(=O)(=O)c4ccc(NC(C)=O)cc4)CC3)n2)c1 [Compound 27, N-(4-(4-(4-(3-methoxybenzyl)thiazol-2-yl)piperazin-1-ylsulfonyl)phenyl)acetamide] | – | – | 6.60 | 91% |
| COc1cccc(Cc2csc(N3CCN(S(=O)(=O)c4ccc(C)cc4)CC3)n2)c1 [Compound 28, 1-(4-(3-methoxybenzyl)thiazol-2-yl)-4-tosylpiperazine] | – | – | 5.72 | 165% |
| COc1cccc(Cc2csc(N3CCN(S(=O)(=O)c4ccc(C#N)cc4)CC3)n2)c1 [Compound 29, 4-(4-(4-(3-methoxybenzyl)thiazol-2-yl)piperazin-1-ylsulfonyl)benzonitrile] | – | – | 5.90 | 42% |
| COc1cccc(Cc2csc(N3CCN(S(=O)(=O)c4ccc(F)cc4)CC3)n2)c1 [Compound 30, 1-(4-(3-methoxybenzyl)thiazol-2-yl)-4-(4-fluorophenylsulfonyl)piperazine] | – | – | 6.39 | 98% |
| COc1ccc(S(=O)(=O)N2CCC(c3nc(Cc4cccc(OC)c4)cs3)CC2)cc1 [Compound 31, 4-(4-(3-methoxybenzyl)thiazol-2-yl)-1-(4-methoxyphenylsulfonyl)piperidine] | – | – | 8.18 | 66% |
| COc1ccc(S(=O)(=O)N2CCN(Cc3nc(Cc4cccc(OC)c4)cs3)CC2)cc1 [Compound 32, 1-((4-(3-methoxybenzyl)thiazol-2-yl)methyl)-4-(4-methoxyphenylsulfonyl)piperazine] | – | – | 6.80 | 95% |
